Where a SMILES comes first, the peptide text is derived from it. The star is where a group is joined. Propyl(2R-PamO,3-PamO) = CCCCCCCCCCCCCCCC(=O)OC[C@H](C*)OC(=O)CCCCCCCCCCCCCCC; Palmitoyl = CCCCCCCCCCCCCCCC(=O)*
Legend:
[1] = system: RAW γNO(−) cells; experiment: TNF-α and IFN-β production by mouse macrophages (Example 3); assay type: cell-based; details: best-fit values (Prism)
Procedure: After 5 hours, the supernatants were harvested and examined for mouse TNF-α and IFN-β using commercial or in-house developed capture ELISA assays, respectively.

[2] = system: RAW 264.7 γNO(−) cells; experiment: TNF-α and IFN-β assays in macrophages (Example 6); assay type: cell-based, mouse; details: 5.5 h
Procedure: To examine cytokine production, mouse macrophages (RAW γNO(−) cells) were exposed over a wide range of concentrations to compounds 21-24, E. coli 055:B5 LPS and prototypic E. coli bisphosphoryl lipid A (Zhang, J. Am. Chem. Soc. 2007, 129, 5200-5216). After 5.5 h, the supernatants were harvested and examined for mouse TNF-α and IFN-β using commercial or in-house developed capture ELISAs, respectively (FIG. 6). […] The reduced efficacy of compounds 21 and 23 is probably a beneficial property, because LPS can over-activate the innate immune system leading to symptoms of septic shock.
RAW 264.7 γNO(−) cells were plated on the day of the exposure assay as 2×10^5 cells/well in 96-well plates (Nunc) and incubated with different stimuli for 5.5 h in the presence or absence of polymyxin B. Culture supernatants were collected and stored frozen (−80° C.) until assayed for cytokine production. Concentrations of TNF-α were determined using the TNF-α DuoSet ELISA Development kit from R&D Systems. Concentrations of IFN-β were determined as follows. ELISA MaxiSorp plates were coated with rabbit polyclonal antibody against mouse IFN-β (PBL Biomedical Laboratories). IFN-β in standards and samples was allowed to bind to the immobilized antibody. Rat anti-mouse IFN-β antibody (USBiological) was then added, producing an antibody-antigen-antibody “sandwich”. Next, horseradish peroxidase (HRP) conjugated goat anti-rat IgG (H+L) antibody (Pierce) and a chromogenic substrate for HRP 3,3′,5,5′-tetramethylbenzidine (TMB; Pierce) were added. After the reaction was stopped, the absorbance was measured at 450 nm with wavelength correction set to 540 nm. Concentration-response data were analyzed using nonlinear least-squares curve fitting in Prism (GraphPad Software, Inc.). […] The Hill slope was set at 1 to be able to compare the EC50 values of the different inducers. All cytokine values are presented as the means±SD of triplicate measurements, with each experiment being repeated three times.

[3] = system: GSTPVS(β-O-GlcNAc)SANM (BSA-MI-66 conjugate); design: species or system BALB/c mice; details: mouse, in vivo

Compound	Emax for TNF-α production [1] [pg/mL]	IFN-β secretion [2]	TNF-α secretion [2]	IgG1 titer (anti-GSTPVS(β-O-GlcNAc)SANM) [3]	IgG2a titer (anti-GSTPVS(β-O-GlcNAc)SANM) [3]	IgG2b titer (anti-GSTPVS(β-O-GlcNAc)SANM) [3]	IgG3 titer (anti-GSTPVS(β-O-GlcNAc)SANM) [3]	IgG total titer (anti-GSTPVS(β-O-GlcNAc)SANM) [3]	IgM titer (anti-GSTPVS(β-O-GlcNAc)SANM) [3]
CCCCCCCCCCCCCCCC(=O)OC[C@H](CSC[C@H](N)C(=O)N[C@@H](CO)C(=O)N[C@@H](CCCCN)C(=O)N[C@@H](CCCCN)C(=O)N[C@@H](CCCCN)C(=O)N[C@@H](CCCCN)C(=O)O)OC(=O)CCCCCCCCCCCCCCC [Pam2CysSK4, S—[(R)-2,3-bis(palmitoyloxy)-propyl]-(R)-cysteinyl-(S)-seryl-(S)-lysine-(S)-lysine-(S)-lysine-(S)-lysyne] (H-C(Propyl(2R-PamO,3-PamO))SKKKK-OH; C-terminus assumed)	631	–	–	–	–	–	–	–	–
CCCCCCCCCCCCCCCC(=O)N[C@@H](CSC[C@@H](COC(=O)CCCCCCCCCCCCCCC)OC(=O)CCCCCCCCCCCCCCC)C(=O)N[C@@H](CO)C(=O)N[C@@H](CCCCN)C(=O)N[C@@H](CCCCN)C(=O)N[C@@H](CCCCN)C(=O)N[C@@H](CCCCN)C(=O)O [Pam3CysSK4, N-palmitoyl-S—[(R)-2,3-bis(palmitoyloxy)-propyl]-(R)-cysteinyl-(S)-seryl-(S)-lysine-(S)-lysine-(S)-lysine-(S)-lysyne] (Palmitoyl-C(Propyl(2R-PamO,3-PamO))SKKKK-OH)	932	none of the compounds induced the production of INF-β	induced secretion of TNF-α with similar efficacies and potencies	–	–	–	–	–	–
Pam3CysSK4G-C-KLFAVWKITYKDT-G-GSTPVS(β-O-GluNAc)SANM [Compound 52]	–	–	–	61,400	33,200	12,500	69,400	76,500	81,900
Pam3CysSK4G-C-KLFAVWKITYKDT-G-GSTPVS(β-S-GluNAc)SANM [Compound 53]	–	–	–	111,800	55,600	21,300	111,700	151,600	21,900
monophosphoryl lipid A [Compound 24]	–	stimulated the cells to produce TNF-α and INF-β	stimulated the cells to produce TNF-α and INF-β	–	–	–	–	–	–
